According to patent publication US10918633B2, “Method of treating coronavirus” (MyMD Pharmaceuticals, Inc., priority 2015, dated 2021):
Entries after “also recorded” stand apart in the source; their conditions may differ.

What was measured:
MAO-B = biological target: T1, MAO-B (Homo sapiens, UniProt P27338); assay: MAO-Glo luminescent assay, MAO-B inhibition; format: biochemical; settings: compared with myosmine, anatabine, anabasine, nornicotine; FIG. 2
T1 construct: purchased
T1 sequence (P27338 1-520): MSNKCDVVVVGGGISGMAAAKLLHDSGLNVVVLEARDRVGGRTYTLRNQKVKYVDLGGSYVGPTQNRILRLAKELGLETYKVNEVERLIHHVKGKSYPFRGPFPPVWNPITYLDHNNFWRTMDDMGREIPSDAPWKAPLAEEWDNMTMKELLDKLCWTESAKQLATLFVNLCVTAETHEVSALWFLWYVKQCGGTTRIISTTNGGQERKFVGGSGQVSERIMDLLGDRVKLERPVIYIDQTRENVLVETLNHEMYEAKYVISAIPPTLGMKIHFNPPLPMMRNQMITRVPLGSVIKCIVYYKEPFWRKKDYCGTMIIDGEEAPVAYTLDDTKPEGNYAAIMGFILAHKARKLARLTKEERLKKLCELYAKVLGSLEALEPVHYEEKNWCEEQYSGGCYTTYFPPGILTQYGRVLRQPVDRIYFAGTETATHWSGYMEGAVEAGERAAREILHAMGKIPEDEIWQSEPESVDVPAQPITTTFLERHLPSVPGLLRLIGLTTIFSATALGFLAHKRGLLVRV
Source text: (§1) This example describes experiments for determining monoamine oxidase (MAO) inhibition for isomyosmine and other alkaloids. MAOs are enzymes located on the outer membrane of mitochondria and are involved in the catabolism of monoamine neurotransmitters. There are two well-characterized isoenzymes: MAO-A, which predominantly catabolizes serotonin and norepinephrine, and MAO-B, which preferentially catabolizes benzylamine and phenylethylamine. Dopamine and tyramine are metabolized by both isoforms.
(§2) To detect the activity of MAO, a luminescent method (MAO-Glo Assay kit, from Promega, Cat #V1401) was used. In this method, a MAO substrate (a derivative of beetle luciferin provided in the kit) is mixed with the compound to be tested (in this case, myosmine and control compounds). Then, the MAO enzymes (either A or B, purchased separately) are added to the mixture and incubated with the reaction for 1 hour at room temperature. The MAO enzymes, if not inhibited by the test compound, will convert the substrate into methyl ester luciferin. Finally, a luciferin detection reagent (provided by the kit) is added (20 minutes at room temperature) to stop the MAO reaction and convert methyl ester luciferin into D-luciferin. […] The luminescent signal is measured and recorded using a luminometer. […]

hydrogen sulfide (H2S) = assay: Serum hydrogen sulfide (H2S) by ELISA in mice with EAE; format: in vivo; settings: 5 mg/ml isomyosmine in water, FIG. 3A-3B
Procedure: This example describes an experiment to determine whether treatments with isomyosmine have an effect on hydrogen sulfide (H2S) quantity in mice with experimental autoimmune encephalomyelitis (EAE). Mice were immunized for EAE on day 0 and treated with either vehicle control or 5 mg/ml isomyosmine in water, for the duration of the experiment. Blood was collected, serum was separated and assayed for H2S via Kamiya Biomedical ELISA kit per the manufacturer's instructions. Two different experiments were performed. In the first experiment, blood was collected at the end of disease course. In the second experiment, blood was collected at day 12 after immunization.

MAO-A = biological target: T2, MAO-A (Homo sapiens, UniProt P21397); assay: MAO-Glo luminescent assay, MAO-A inhibition; format: biochemical; settings: FIG. 1
T2 construct: purchased
T2 sequence (P21397 1-527): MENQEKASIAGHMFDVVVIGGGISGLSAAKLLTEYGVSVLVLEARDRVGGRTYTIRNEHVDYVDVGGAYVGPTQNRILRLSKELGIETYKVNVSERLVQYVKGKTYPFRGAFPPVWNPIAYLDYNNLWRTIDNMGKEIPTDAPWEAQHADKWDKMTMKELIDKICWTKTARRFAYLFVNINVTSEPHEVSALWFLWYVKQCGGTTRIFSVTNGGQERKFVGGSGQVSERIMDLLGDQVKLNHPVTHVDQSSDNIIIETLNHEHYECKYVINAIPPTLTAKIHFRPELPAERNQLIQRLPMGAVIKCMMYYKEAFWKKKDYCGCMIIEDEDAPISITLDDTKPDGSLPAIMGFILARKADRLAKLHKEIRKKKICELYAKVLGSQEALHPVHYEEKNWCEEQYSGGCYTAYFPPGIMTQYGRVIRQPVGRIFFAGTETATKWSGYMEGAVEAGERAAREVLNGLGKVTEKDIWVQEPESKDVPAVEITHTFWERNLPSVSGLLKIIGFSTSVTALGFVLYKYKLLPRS
Source text: as §1, §2

[1] = tested on: purified nitrate reductase; assay: Cell-free nitrate reductase inhibition, Griess reaction; format: biochemical
Procedure: Standard concentrations of nitrate were incubated with purified nitrate reductase and vehicle or isomyosmine, and the Griess reaction was used to measure nitrite. Several concentrations of nitrate and two concentrations of isomyosmine were used.

[2] = tested on: herpes labialis (cold sores), a type of herpes simplex; assay: Treatment of herpes labialis (cold sores) in an individual; format: in vivo, human; settings: 100 mg dose upon first feeling the onset of a cold sore
Procedure: This example illustrates administering isomyosmine to treat herpes labialis (cold sores), a type of herpes simplex occurring on the lip. An individual who experiences periodic outbreaks of herpes labialis was administered a 100 mg dose of isomyosmine upon first feeling the onset of a cold sore.

C1=NC(c2cccnc2)CC1 (centres unmarked) [isomyosmine, 3-(3,4-dihydro-2H-pyrrol-2-yl)-pyridine]
inhibition of the activity of MAO-B (in words) (MAO-B): most potent among the five alkaloids tested; also recorded: potent inhibitor
H2S in serum as measured by ELISA (hydrogen sulfide (H2S); blood collected at day 12 after immunization): trend toward an increase in H2S
H2S in serum as measured by ELISA (hydrogen sulfide (H2S); blood collected at the end of disease course): trend toward an increase in H2S
inhibition at 2000 µM (MAO-A; 2 mM concentration (2,000 micromolar), read-out: inhibition of the enzymatic activity of MAO-A): ~50%
inhibition of the enzymatic activity of MAO-A (in words, curve position) (MAO-A; compared with myosmine, anatabine, anabasine, nornicotine): most potent of the five; also recorded: potent inhibitor
inhibition of nitrate reductase ([1]; high amount of substrate, system saturated (FIG. 4C)): inhibitory effect was reduced
inhibition of nitrate reductase ([1]; low amount of substrate (FIG. 4A)): most efficiently
prevention of cold sore outbreak [2]: effective to prevent the outbreak of the cold sore
